Test results reported in PubChem BioAssay (NCI).
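Values below derive from 48-hour exposures of cells grown in 96-well plates, with endpoints linearly interpolated between the two concentrations bracketing the appropriate inhibition level. GI50: concentration for 50% inhibition of growth. TGI is the concentration that stops growth completely.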

How the values were obtained:
Assay in all cases: growth of human tumour cells (NCI), 48 h
NCI-H226 lung = system: NCI-H226 lung
786-0 renal = system: 786-0 renal
T-47D breast = system: T-47D breast
NCI/ADR-RES ovarian = system: NCI/ADR-RES ovarian
OVCAR-3 ovarian = system: OVCAR-3 ovarian
K-562 leukemia = system: K-562 leukemia
SF-295 CNS = system: SF-295 CNS
CAKI-1 renal = system: CAKI-1 renal
SK-MEL-5 melanoma = system: SK-MEL-5 melanoma
UO-31 renal = system: UO-31 renal
MDA-MB-468 breast = system: MDA-MB-468 breast
MOLT-4 leukemia = system: MOLT-4 leukemia
NCI-H460 lung = system: NCI-H460 lung
BT-549 breast = system: BT-549 breast
PC-3 prostate = system: PC-3 prostate
LOX IMVI melanoma = system: LOX IMVI melanoma
SK-MEL-28 melanoma = system: SK-MEL-28 melanoma
RPMI-8226 leukemia = system: RPMI-8226 leukemia
HCT-116 colon = system: HCT-116 colon
HOP-92 NSCLC = system: HOP-92 NSCLC
NCI-H23 lung = system: NCI-H23 lung
SNB-75 CNS = system: SNB-75 CNS
UACC-62 melanoma = system: UACC-62 melanoma
RXF 393 renal = system: RXF 393 renal
U251 CNS = system: U251 CNS
HOP-62 NSCLC = system: HOP-62 NSCLC
SNB-19 CNS = system: SNB-19 CNS
M14 melanoma = system: M14 melanoma
SR leukemia = system: SR leukemia
HS 578T breast = system: HS 578T breast

## CCCCN1C(=O)/C(=C\C(=O)c2cc3ccccc3oc2=O)c2ccccc21
NCI-H226 lung
  TGI: 31.7 µM
786-0 renal
  GI50: 18 µM
  TGI: 31.9 µM
T-47D breast
  GI50: 14 µM
  TGI: 28.7 µM
NCI/ADR-RES ovarian
  GI50: 22.9 µM
  TGI: 64.3 µM
OVCAR-3 ovarian
  GI50: 15.2 µM
  TGI: 29.7 µM
K-562 leukemia
  GI50: 11.6 µM
  TGI: 84.7 µM
SF-295 CNS
  GI50: > 100 µM
  TGI: > 100 µM
CAKI-1 renal
  GI50: 14.2 µM
  TGI: 27.8 µM
SK-MEL-5 melanoma
  GI50: 48.7 µM
  TGI: > 100 µM
UO-31 renal
  GI50: 11.4 µM
  TGI: 23.7 µM
MDA-MB-468 breast
  GI50: 4.5 µM
  TGI: 17.8 µM
MOLT-4 leukemia
  GI50: 22.4 µM
  TGI: 64 µM
NCI-H460 lung
  GI50: > 100 µM
  TGI: > 100 µM
BT-549 breast
  GI50: 19.4 µM
  TGI: 70.1 µM
PC-3 prostate
  GI50: 32.2 µM
  TGI: > 100 µM
LOX IMVI melanoma
  GI50: 15.2 µM
  TGI: 28.7 µM
SK-MEL-28 melanoma
  GI50: 15.5 µM
  TGI: 29.1 µM
RPMI-8226 leukemia
  GI50: 19.9 µM
  TGI: 54.4 µM
HCT-116 colon
  GI50: 16.3 µM
  TGI: 31.1 µM
HOP-92 NSCLC
  GI50: 13 µM
  TGI: 27.7 µM
NCI-H23 lung
  GI50: 27.4 µM
  TGI: > 100 µM
SNB-75 CNS
  GI50: 19 µM
  TGI: > 100 µM
UACC-62 melanoma
  GI50: 14.6 µM
  TGI: 29.7 µM
RXF 393 renal
  GI50: 15.7 µM
  TGI: 29.6 µM
U251 CNS
  GI50: > 100 µM
  TGI: > 100 µM
HOP-62 NSCLC
  GI50: > 100 µM
  TGI: > 100 µM
SNB-19 CNS
  GI50: > 100 µM
  TGI: > 100 µM
M14 melanoma
  GI50: 14.8 µM
  TGI: 29.3 µM
SR leukemia
  GI50: 23 µM
  TGI: 86.1 µM
HS 578T breast
  GI50: 20.7 µM
  TGI: > 100 µM
